Experimental data published in ChEMBL document CHEMBL1201862, “PubChem BioAssay data set” (2004).
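Interpolation was linear, between the two tested concentrations surrounding the appropriate level; five concentrations were tested over 48 hours in 96-well plates. GI50 marks 50% less growth.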 Active and inactive are the calls of the source. No stated cut-off is given here; in the data, active = GI50 up to about 1.1 µM and inactive = higher.

Tests used:
Assay in all cases: growth of human tumour cells (NCI), 48 h
KM12 = system: KM12
M14 = system: M14
A498 = system: A498
CAKI-1 = system: CAKI-1
OVCAR-8 = system: OVCAR-8
TK-10 = system: TK-10
COLO 205 = system: COLO 205
SNB-75 = system: SNB-75
SF-268 = system: SF-268
SNB-19 = system: SNB-19
UACC-62 = system: UACC-62
LOX IMVI = system: LOX IMVI
786-0 = system: 786-0
U-251 = system: U-251
A549 = system: A549
SF-295 = system: SF-295
SK-MEL-5 = system: SK-MEL-5
HL-60 = system: HL-60
K562 = system: K562

Measured: GI50

COC(c1cccc(C(O)(C(F)(F)F)C(F)(F)F)c1)(C(F)(F)F)C(F)(F)F
inactive: KM12 19.5 µM | M14 18.7 µM | A498 20.1 µM | CAKI-1 24.4 µM | OVCAR-8 24.6 µM | TK-10 22.1 µM | COLO 205 19.3 µM | SNB-75 17.5 µM | SF-268 23.7 µM | SNB-19 19.4 µM | UACC-62 14.3 µM | LOX IMVI 17.5 µM | 786-0 17.6 µM | U-251 18.3 µM | A549 16.6 µM | SF-295 15.7 µM

O=C1C(Cl)N(c2cccc([N+](=O)[O-])c2)C1c1c[nH]c2ccccc12 (stereo not drawn)
inactive: KM12 20.2 µM | M14 16.1 µM | OVCAR-8 23.1 µM | TK-10 20.4 µM | COLO 205 22.5 µM | SNB-75 22.9 µM | SF-268 29.6 µM | SNB-19 23.9 µM | UACC-62 13.8 µM | SK-MEL-5 17 µM | U-251 22.2 µM | HL-60 22.3 µM | A549 22.1 µM | SF-295 17.8 µM | K562 19 µM

O=c1[nH]cc(COCC(F)(F)C(F)(F)C(F)(F)C(F)F)c(=O)[nH]1
inactive: KM12 > 100 µM | M14 > 100 µM | CAKI-1 > 100 µM | OVCAR-8 > 100 µM | TK-10 > 100 µM | COLO 205 > 100 µM | SNB-75 > 100 µM | SF-268 > 100 µM | SNB-19 > 100 µM | UACC-62 > 100 µM | LOX IMVI > 100 µM | 786-0 > 100 µM | SK-MEL-5 > 100 µM | U-251 > 100 µM | HL-60 > 100 µM | A549 > 100 µM | SF-295 > 100 µM | K562 > 100 µM

C=C(C(=C)P(=S)(c1ccccc1)c1ccccc1)P(=S)(c1ccccc1)c1ccccc1
inactive: KM12 > 100 µM | M14 > 100 µM | A498 > 100 µM | CAKI-1 > 100 µM | OVCAR-8 > 100 µM | TK-10 > 100 µM | COLO 205 > 100 µM | SNB-75 45.5 µM | SF-268 > 100 µM | SNB-19 > 100 µM | UACC-62 > 100 µM | 786-0 > 100 µM | SK-MEL-5 > 100 µM | U-251 > 100 µM | HL-60 7.33 µM | A549 > 100 µM | SF-295 > 100 µM | K562 > 100 µM

CCCCc1c2c(nc3c1CCCC3=O)CCCC2
inactive: KM12 > 100 µM | M14 > 100 µM | OVCAR-8 > 100 µM | COLO 205 > 100 µM | SF-268 > 100 µM | SNB-19 > 100 µM | LOX IMVI > 100 µM | 786-0 > 100 µM | SK-MEL-5 > 100 µM | U-251 > 100 µM | HL-60 > 100 µM | A549 > 100 µM | SF-295 > 100 µM | K562 > 100 µM

COc1ccc(N[S+]([O-])C2CCCCC2)cc1 (stereo not drawn)
inactive: KM12 > 100 µM | M14 > 100 µM | CAKI-1 > 100 µM | OVCAR-8 > 100 µM | TK-10 > 100 µM | COLO 205 > 100 µM | SNB-75 > 100 µM | SF-268 > 100 µM | SNB-19 > 100 µM | LOX IMVI > 100 µM | 786-0 > 100 µM | SK-MEL-5 > 100 µM | U-251 > 100 µM | HL-60 > 100 µM | A549 > 100 µM | SF-295 > 100 µM | K562 > 100 µM

C#CCCCCC#CC1CCCC1C1=CC(=O)c2ccccc21 (stereo not drawn)
inactive: KM12 6.27 µM | M14 5.07 µM | A498 15 µM | OVCAR-8 1.66 µM | TK-10 20.3 µM | COLO 205 15.3 µM | SNB-75 5.45 µM | SF-268 3.32 µM | SNB-19 15.5 µM | UACC-62 2.05 µM | LOX IMVI 3.22 µM | SK-MEL-5 7.67 µM | U-251 4.43 µM | HL-60 1.33 µM | A549 13.5 µM | SF-295 5.25 µM | K562 2.4 µM

COc1cccc(NC(=O)CC(=O)n2nc(C)c(/N=N/c3ccccc3)c2C)c1
inactive: KM12 > 100 µM | M14 > 100 µM | A498 76 µM | CAKI-1 > 100 µM | OVCAR-8 > 100 µM | TK-10 85.7 µM | COLO 205 > 100 µM | SNB-75 47.8 µM | SF-268 > 100 µM | SNB-19 > 100 µM | UACC-62 79.1 µM | LOX IMVI 83.6 µM | 786-0 > 100 µM | SK-MEL-5 76.4 µM | U-251 > 100 µM | A549 > 100 µM | SF-295 > 100 µM

CCC(COC(=O)CC[C@@H](NC(=O)C(C)NC(=O)C(C)OC1C(O)C(CO)OC(OCc2ccccc2)C1NC(C)=O)C(N)=O)NC1c2ccccc2Nc2cccc([N+](=O)[O-])c21 (stereo partly drawn)
inactive: KM12 > 100 µM | M14 > 100 µM | CAKI-1 > 100 µM | OVCAR-8 > 100 µM | TK-10 > 100 µM | COLO 205 > 100 µM | SNB-75 94.8 µM | SF-268 > 100 µM | SNB-19 > 100 µM | UACC-62 > 100 µM | LOX IMVI > 100 µM | 786-0 67.1 µM | SK-MEL-5 > 100 µM | U-251 > 100 µM | HL-60 > 100 µM | A549 > 100 µM | SF-295 > 100 µM | K562 > 100 µM

O=C1NP23(OCCO2)Oc2ccccc2C3(C(F)(F)F)O1 (stereo not drawn)
inactive: KM12 > 100 µM | M14 > 100 µM | OVCAR-8 > 100 µM | TK-10 > 100 µM | SNB-75 > 100 µM | SF-268 > 100 µM | SNB-19 > 100 µM | UACC-62 > 100 µM | LOX IMVI > 100 µM | SK-MEL-5 > 100 µM | U-251 > 100 µM | HL-60 > 100 µM | A549 > 100 µM | SF-295 > 100 µM | K562 > 100 µM

CSCC[C@@H](NC(=O)[C@H](CC(C)C)NC(=O)C(Cc1cnc[nH]1)NC(=O)CNC(=O)[C@@H](NC(=O)[C@H](C)NC(=O)[C@H](Cc1c[nH]c2ccccc12)NC(=O)[C@H](CCC(N)=O)NC(=O)[C@@H](N)CC(N)=O)C(C)C)C(N)=O (stereo partly drawn)
inactive: KM12 > 100 µM | A498 > 100 µM | OVCAR-8 > 100 µM | COLO 205 > 100 µM | SNB-75 > 100 µM | SF-268 > 100 µM | SNB-19 > 100 µM | UACC-62 > 100 µM | LOX IMVI 99.8 µM | SK-MEL-5 > 100 µM | U-251 > 100 µM | HL-60 > 100 µM | A549 > 100 µM | SF-295 > 100 µM | K562 > 100 µM

COC(=O)C12CC(c3ccccc31)C1C(=O)OC(=O)C12 (stereo not drawn)
inactive: KM12 > 100 µM | M14 > 100 µM | OVCAR-8 > 100 µM | TK-10 > 100 µM | COLO 205 > 100 µM | SNB-75 17.5 µM | SF-268 > 100 µM | SNB-19 > 100 µM | UACC-62 > 100 µM | LOX IMVI > 100 µM | 786-0 > 100 µM | SK-MEL-5 > 100 µM | U-251 > 100 µM | HL-60 > 100 µM | A549 > 100 µM | SF-295 > 100 µM | K562 > 100 µM

COC(=O)c1ccc(/N=N/N(C)CO)cc1
inactive: KM12 > 100 µM | M14 71.1 µM | A498 51.8 µM | OVCAR-8 83.2 µM | TK-10 > 100 µM | COLO 205 > 100 µM | SNB-75 27.7 µM | SNB-19 86.5 µM | UACC-62 51.1 µM | LOX IMVI > 100 µM | 786-0 74 µM | SK-MEL-5 > 100 µM | U-251 48.6 µM | HL-60 > 100 µM | A549 > 100 µM | SF-295 78 µM | K562 68.4 µM

Cn1c(=O)nc2n(-c3ccc(Br)cc3)c3ccccc3nc-2c1=O
inactive: KM12 8.83 µM | M14 3.75 µM | A498 11.2 µM | CAKI-1 4.86 µM | OVCAR-8 3.38 µM | TK-10 8.93 µM | COLO 205 2.64 µM | SNB-75 4.65 µM | SF-268 11.3 µM | SNB-19 2.9 µM | UACC-62 1.3 µM | 786-0 3.74 µM | SK-MEL-5 1.77 µM | U-251 5.12 µM | A549 2.02 µM | SF-295 3.66 µM | K562 5.43 µM

CCOC(=O)C(N=C(c1ccccc1)c1ccccc1)N(C(=O)OC(C)(C)C)C(=O)OC(C)(C)C (stereo not drawn)
inactive: KM12 > 100 µM | CAKI-1 > 100 µM | OVCAR-8 > 100 µM | TK-10 > 100 µM | COLO 205 > 100 µM | SNB-75 82 µM | SF-268 > 100 µM | SNB-19 > 100 µM | UACC-62 > 100 µM | 786-0 > 100 µM | SK-MEL-5 > 100 µM | U-251 > 100 µM | A549 > 100 µM | SF-295 > 100 µM | K562 > 100 µM

O=C1c2ccccc2CC1C1(O)C(=O)Nc2c(Cl)cc(Cl)cc21 (stereo not drawn)
inactive: KM12 47.2 µM | M14 > 100 µM | CAKI-1 > 100 µM | OVCAR-8 39.4 µM | TK-10 > 100 µM | COLO 205 75.2 µM | SNB-75 61.9 µM | SF-268 61 µM | SNB-19 37.1 µM | LOX IMVI 61.8 µM | 786-0 > 100 µM | SK-MEL-5 27.9 µM | U-251 54.8 µM | HL-60 35.9 µM | A549 47.9 µM | SF-295 47.9 µM | K562 30.8 µM
